Laboratory results as given in patent publication US20240270762A1, “PENICILLIN-BINDING PROTEIN INHIBITORS” (priority 2021, published 2024).
≈ marks a conversion by molar mass, not a printed value. Where two headings read alike, the source gives them in different places.

Experiments:
[1] = biological target: T1, PBP3 from Acinetobacter baumannii (ATCC 19606) (Acinetobacter baumannii, UniProt A0ABX6CK25); assay: Bocillin-FL fluorescence polarization competition binding, A. baumannii PBP3; settings: fluorescence polarization competition binding assay using Bocillin-FL; read-out: A. baumannii PBP3 Potency
T1 sequence (A0ABX6CK25 64-610): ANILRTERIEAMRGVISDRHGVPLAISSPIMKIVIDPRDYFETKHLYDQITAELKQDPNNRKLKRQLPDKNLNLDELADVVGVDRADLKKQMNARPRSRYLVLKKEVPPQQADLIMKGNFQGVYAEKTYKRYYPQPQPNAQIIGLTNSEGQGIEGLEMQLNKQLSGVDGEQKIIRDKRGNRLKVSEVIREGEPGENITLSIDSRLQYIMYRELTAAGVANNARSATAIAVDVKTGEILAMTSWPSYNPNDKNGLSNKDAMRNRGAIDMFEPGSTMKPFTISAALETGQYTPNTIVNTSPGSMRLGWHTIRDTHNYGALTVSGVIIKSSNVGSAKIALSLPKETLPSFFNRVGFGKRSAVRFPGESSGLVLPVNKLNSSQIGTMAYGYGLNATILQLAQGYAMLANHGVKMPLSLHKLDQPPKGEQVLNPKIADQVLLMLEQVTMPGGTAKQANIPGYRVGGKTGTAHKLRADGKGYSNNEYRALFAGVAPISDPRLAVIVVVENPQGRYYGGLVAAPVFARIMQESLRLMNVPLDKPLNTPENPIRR
Summary of the method: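 Purified PBPs pre-incubated with inhibitor (E. coli PBP3 1.5 μM, 30 min; P. aeruginosa PBP3 0.75 μM, A. baumannii PBP1a 1 μM and PBP3 0.2 μM, 15 min), then Bocillin-FL 0.1 μM (0.05 μM for PBP1a) added; FP read up to 60 min. EC50 = concentration halving bound Bocillin-FL.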

P. aeruginosa ATCC 27853 = assay: microbe, parasite or virus in culture; assay type: cell-based; settings: Pseudomonas aeruginosa, ATCC27853, read-out: Minimum inhibitory concentration, P. aeruginosa ATCC 27853
A. baumannii ATCC 19606 = assay: microbe, parasite or virus in culture; assay type: cell-based; settings: Acinetobacter baumannii
P. aeruginosa CDC-0095 = assay: microbe, parasite or virus in culture; assay type: cell-based; settings: Pseudomonas aeruginosa, CDC0095, read-out: Minimum inhibitory concentration, P. aeruginosa CDC-0095
A. baumannii CDC-0045 = assay: microbe, parasite or virus in culture; assay type: cell-based; settings: Acinetobacter baumannii
[2] = test system: B. thailandensis ATCC 700388; assay: microbe, parasite or virus in culture; assay type: cell-based; settings: Burkholderia thailandensis, ATCC700388, read-out: Minimum inhibitory concentration (MIC), B. thailandensis ATCC 700388
P. aeruginosa CDC-0110 = assay: microbe, parasite or virus in culture; assay type: cell-based; settings: Pseudomonas aeruginosa, CDC0110, read-out: Minimum inhibitory concentration, P. aeruginosa CDC-0110
A. baumannii PBP2 = A. baumannii PBP2 (Acinetobacter baumannii, UniProt D0C8Z9); assay: Bocillin-FL competition binding via gel filtration, A. baumannii PBP2
Summary of the method: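 Enzyme pre-incubated with increasing inhibitor concentrations, then Bocillin-FL added for 15 min further incubation. Bocillin-FL-bound PBP separated by gel filtration and fluorescence read. EC50 from fitting fraction PBP bound vs inhibitor concentration to a Hill-type equation (ymin, ymax, n).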

[3] = ATCC19606, read-out: Minimum inhibitory concentration (MIC), A. baumannii ATCC 19606
[4] = CDC0045, read-out: Minimum inhibitory concentration (MIC), A. baumannii CDC-0045

Sequence of A. baumannii PBP2 (D0C8Z9 whole entry): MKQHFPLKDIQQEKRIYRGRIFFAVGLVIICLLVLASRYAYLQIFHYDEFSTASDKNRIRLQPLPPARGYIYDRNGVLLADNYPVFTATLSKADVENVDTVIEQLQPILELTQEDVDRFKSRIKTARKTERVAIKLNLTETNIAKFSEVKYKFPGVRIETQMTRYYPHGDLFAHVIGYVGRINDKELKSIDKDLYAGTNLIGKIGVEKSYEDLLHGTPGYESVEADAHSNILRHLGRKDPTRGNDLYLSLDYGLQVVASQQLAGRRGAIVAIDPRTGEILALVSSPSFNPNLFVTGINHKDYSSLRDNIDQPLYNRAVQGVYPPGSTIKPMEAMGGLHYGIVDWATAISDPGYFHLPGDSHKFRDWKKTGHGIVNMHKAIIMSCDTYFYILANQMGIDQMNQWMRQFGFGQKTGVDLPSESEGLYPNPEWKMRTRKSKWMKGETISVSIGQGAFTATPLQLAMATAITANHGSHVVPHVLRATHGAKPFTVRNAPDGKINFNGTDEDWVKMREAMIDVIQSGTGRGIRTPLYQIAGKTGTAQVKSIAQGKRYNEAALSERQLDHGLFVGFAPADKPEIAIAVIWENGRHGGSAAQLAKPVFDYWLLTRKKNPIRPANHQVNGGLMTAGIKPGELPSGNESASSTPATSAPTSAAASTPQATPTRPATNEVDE

SMILES | IC50 [1] [µM] | MIC (P. aeruginosa ATCC 27853) [µg/mL] | MIC (A. baumannii ATCC 19606; ATCC19606, read-out: MIC, A. baumannii ATCC 19606) [µg/mL] | MIC (P. aeruginosa CDC-0095) [µg/mL] | MIC (A. baumannii CDC-0045; CDC0045, read-out: MIC, A. baumannii CDC-0045) [µg/mL] | MIC [2] [µg/mL] | MIC (P. aeruginosa CDC-0110) [µg/mL] | EC50 (A. baumannii PBP2) [µM] | MIC (A. baumannii ATCC 19606; [3]) [µg/mL] | MIC (A. baumannii CDC-0045; [4]) [µg/mL]
O=C(O)c1c(F)ccc2c1OB(O)[C@@H](NC(=O)[C@@H](NC(=O)N1CCN(C3CCN(C(=O)c4ccc(O)cc4)CC3)C1=O)c1cc(F)c(O)c(O)c1Cl)C2 (single isomer, unassigned) [Example 462] | < 10 | 2 to 4 (≈ 2.64 to 5.28 µM) | 8 to 16 (≈ 10.6 to 21.1 µM) | 32 to 64 (≈ 42.2 to 84.4 µM) | 32 to 64 (≈ 42.2 to 84.4 µM) | > 128 | 8 to 16 (≈ 10.6 to 21.1 µM) |  |  | 
O=C(O)c1c(F)ccc2c1OB(O)[C@@H](NC(=O)[C@H](NC(=O)N1CCN(C3CCN(C(=O)c4cc(F)c(O)c(O)c4Cl)CC3)C1=O)c1ccc(P(=O)(O)O)cc1)C2 (single isomer, unassigned) [Example 495] |  | < 1 |  | 32 to 64 (≈ 38.9 to 77.9 µM) |  | < 1 |  | < 10 | < 1 | < 1
O=C(O)c1c(F)ccc2c1OB(O)[C@@H](NC(=O)[C@H](NC(=O)N1CCN(C3CCN(C(=O)Nc4ccc(O)c(O)c4Cl)CC3)C1=O)c1ccc(P(=O)(O)O)cc1)C2 (single isomer, unassigned) [Example 497] |  | 2 to 4 (≈ 2.44 to 4.88 µM) |  | 32 to 64 (≈ 39.1 to 78.2 µM) |  | < 1 |  | < 10 | < 1 | < 1
O=C(O)c1c(F)ccc2c1OB(O)[C@@H](NC(=O)[C@H](NC(=O)N1CCN(C3CCN(C(=O)Nc4cc(F)c(O)c(O)c4Cl)CC3)C1=O)c1ccc(P(=O)(O)O)cc1)C2 (single isomer, unassigned) [Example 500] |  | < 1 |  | < 1 |  | < 1 |  | < 10 | < 1 | < 1
O=C(O)c1c(F)ccc2c1OB(O)[C@@H](NC(=O)C(NC(=O)N1CCN(C3CCN(C(=O)Nc4c(F)ccc(O)c4F)CC3)C(=O)C1=O)c1cc(F)c(O)c(O)c1Cl)C2 (stereo partly drawn) [Example 487, (3R)-3-(2-(2-chloro-5-fluoro-3,4-dihydroxyphenyl)-2-(4-(1-((2,6-difluoro-3-hydroxyphenyl)carbamoyl)piperidin-4-yl)-2,3-dioxopiperazine-1-carboxamido)acetamido)-7-fluoro-2-hydroxy-3,4-dihydro-2H-benzo[e][1,2]oxaborinine-8-carboxylic acid] | < 10 | < 1 |  | < 1 |  | < 1 |  | < 10 | < 1 | < 1
O=C(O)c1c(F)ccc2c1OB(O)[C@@H](NC(=O)[C@H](NC(=O)N1CCN(C3CCN(C(=O)c4ccc(O)c(O)c4Cl)CC3)C1=O)c1ccc(P(=O)(O)O)cc1)C2 [Example 494, (R)-3-((R)-2-(3-(1-(2-chloro-3,4-dihydroxybenzoyl)piperidin-4-yl)-2-oxoimidazolidine-1-carboxamido)-2-(4-phosphonophenyl)acetamido)-7-fluoro-2-hydroxy-3,4-dihydro-2H-benzo[e][1,2]oxaborinine-8-carboxylic acid] |  | < 1 |  | 8 to 16 (≈ 9.95 to 19.9 µM) |  | < 1 |  | 10 to 50 | < 1 | < 1
O=C(O)c1c(F)ccc2c1OB(O)[C@@H](NC(=O)[C@H](NC(=O)N1CCN(C3CCN(C(=O)c4cc(O)c(O)c(Cl)c4)CC3)C1=O)c1ccc(P(=O)(O)O)cc1)C2 [Example 496, (R)-3-((R)-2-(3-(1-(3-chloro-4,5-dihydroxybenzoyl)piperidin-4-yl)-2-oxoimidazolidine-1-carboxamido)-2-(4-phosphonophenyl)acetamido)-7-fluoro-2-hydroxy-3,4-dihydro-2H-benzo[e][1,2]oxaborinine-8-carboxylic acid] |  | < 1 |  | 8 to 16 (≈ 9.95 to 19.9 µM) |  | < 1 |  | < 10 | < 1 | < 1
O=C(O)c1c(F)ccc2c1OB(O)[C@@H](NC(=O)[C@H](NC(=O)N1CCN(Cc3ccc(O)c(O)c3Cl)C(=O)C1=O)c1cc(F)c(P(=O)(O)O)c(F)c1)C2 [Example 502, (R)-3-((R)-2-(4-(2-chloro-3,4-dihydroxybenzyl)-2,3-dioxopiperazine-1-carboxamido)-2-(3,5-difluoro-4-phosphonophenyl)acetamido)-7-fluoro-2-hydroxy-3,4-dihydro-2H-benzo[e][1,2]oxaborinine-8-carboxylic acid] |  | < 1 |  | 2 to 4 (≈ 2.59 to 5.19 µM) |  | < 1 |  | < 10 | < 1 | < 1
O=C(NCCN1CCN(C(=O)N[C@@H](C(=O)N[C@H]2Cc3ccc(F)c(C(=O)O)c3OB2O)c2ccc(P(=O)(O)O)cc2)C(=O)C1=O)c1ccc(O)c(O)c1Cl [Example 503, (R)-3-((R)-2-(4-(2-(2-chloro-3,4-dihydroxybenzamido)ethyl)-2,3-dioxopiperazine-1-carboxamido)-2-(4-phosphonophenyl)acetamido)-7-fluoro-2-hydroxy-3,4-dihydro-2H-benzo[e][1,2]oxaborinine-8-carboxylic acid] |  | < 1 |  | < 1 |  | < 1 |  | 10 to 50 | < 1 | 2 to 4 (≈ 2.53 to 5.05 µM)
O=C(O)c1cccc2c1OB(O)[C@@H](NC(=O)[C@H](NC(=O)N1CCN(Cc3cc(F)c(O)c(O)c3Cl)C(=O)C1=O)c1ccc(P(=O)(O)O)cc1)C2 [Example 504, (R)-3-((R)-2-(4-(2-chloro-5-fluoro-3,4-dihydroxybenzyl)-2,3-dioxopiperazine-1-carboxamido)-2-(4-phosphonophenyl)acetamido)-2-hydroxy-3,4-dihydro-2H-benzo[e][1,2]oxaborinine-8-carboxylic acid] |  | < 1 |  | < 1 |  | < 1 |  | < 10 | < 1 | < 1
O=C(O)c1c(F)ccc2c1OB(O)[C@@H](NC(=O)C(NC(=O)N1CCN(S(=O)(=O)c3ccc(O)c(O)c3Cl)C1=O)c1ccc(P(=O)(O)O)cc1)C2 (stereo partly drawn) [Example 505, (3R)-3-(2-(3-((2-chloro-3,4-dihydroxyphenyl)sulfonyl)-2-oxoimidazolidine-1-carboxamido)-2-(4-phosphonophenyl)acetamido)-7-fluoro-2-hydroxy-3,4-dihydro-2H-benzo[e][1,2]oxaborinine-8-carboxylic acid] |  | < 1 |  | < 1 |  | < 1 |  | < 10 | < 1 | < 1
O=C(O)c1c(F)ccc2c1OB(O)[C@@H](NC(=O)[C@H](NC(=O)N1CCN(S(=O)(=O)c3ccc(O)c(O)c3Cl)C1=O)c1ccc(P(=O)(O)O)cc1)C2 [Example 506, (R)-3-((R)-2-(3-((2-chloro-3,4-dihydroxyphenyl)sulfonyl)-2-oxoimidazolidine-1-carboxamido)-2-(4-phosphonophenyl)acetamido)-7-fluoro-2-hydroxy-3,4-dihydro-2H-benzo[e][1,2]oxaborinine-8-carboxylic acid] |  | < 1 |  | < 1 |  | < 1 |  |  | < 1 | < 1
O=C(O)c1cccc2c1OB(O)[C@@H](NC(=O)[C@H](NC(=O)N1CCN(S(=O)(=O)c3ccc(O)c(O)c3Cl)C1=O)c1ccc(P(=O)(O)O)cc1)C2 [Example 509, (R)-3-((R)-2-(3-((2-chloro-3,4-dihydroxyphenyl)sulfonyl)-2-oxoimidazolidine-1-carboxamido)-2-(4-phosphonophenyl)acetamido)-2-hydroxy-3,4-dihydro-2H-benzo[e][1,2]oxaborinine-8-carboxylic acid] |  | < 1 |  | < 1 |  | < 1 |  |  | < 1 | < 1
